≈ marks a conversion by molar mass, not a printed value. Counter-ions that a name gives are not always drawn. Like-named read-outs stand apart in the source and are kept apart here. Bounds are passed on as bounds.

Test [1] deals with engineered strain of Escherichia coli harboring CTX-M15. The test is described as follows: microbe, parasite or virus in culture. The test is classed as cell-based. The settings on record: Escherichia coli, read-out: Microbiological Activity (MIC in mg/L), E. coli DH5α/pLBII-CTX-M15, engineered strain producing CTX-M15.
In test [2] the target is E. coli PBP1b (Escherichia coli (strain K12), UniProt P02919). Nature of the test: Radioligand competition binding assay with 14C-labeled boronic acid probe, PBP1b.
The test system of test [3] is E. coli DH5α empty pLBII vector control strain. Nature of the test: microbe, parasite or virus in culture. The test is classed as cell-based, Escherichia coli. The settings on record: Escherichia coli, read-out: Microbiological Activity (MIC in mg/L), E. coli DH5α/pLBII. As to the method:
Briefly, cryo-preserved bacterial cultures of challenge strains are streaked for isolation on appropriate agar medium, in this case Mueller Hinton II agar. Following incubation to allow growth of the colonies, plates are sealed with parafilm and stored refrigerated for up to two weeks. For preparation of assay inoculum and to ensure low variability, at least 5 colonies are picked from the agar plates with an inoculating loop and aseptically transferred to a culture tube containing 3 mL of Mueller-Hinton Broth (supplemented with divalent cations to required levels based on Manufacturers' certification). The broth culture is grown for 3-5 hours at 37° C. with shaking at 200 rpm. Meanwhile, 2-fold serial dilutions of test compounds are conducted in a 96 well plate with a final volume of 75 μL per well at 2-fold the final desired concentration. After the dilution plates are set up the growing cultures are then diluted in a cuvette containing MH II broth and the optical density is measured at 600 nm. The Inoculum is diluted such that 75 μL of this culture in Mueller-Hinton Broth results in a starting bacterial concentration of 5×10^5 CFU/mL when added to the dilution plates. The plates are incubated for 16-20 hours at 37° C. The MIC values are read visually as the lowest concentration well with no bacterial growth.
To determine if test compounds were affected by CTX-M15, the most abundant extended spectrum […] in clinical settings worldwide, the inhibition of the growth of an engineered strain of Escherichia coli harboring CTX-M15 was tested. This strain was constructed by cloning the gene encoding CTX-M15 into the NdeI and BamHI restriction endonuclease sites of plasmid pLBII, placing the gene(s) under the control of the Lac promoter. The constructed expression plasmid for CTX-M15 was used to transform competent E. coli DH5α cells to make the engineered strain, including an empty pLBII vector control strain. The classic cell based broth microdilution MIC assay was employed as described above with the addition of control antibiotics, known to be degraded by β-lactamases (Ceftazidime, piperacillin and piperacillin+tazobactam).

In test [4] the target is E. coli PBP3 (Escherichia coli (strain K12), UniProt P0AD68). The test is described as follows: E. coli PBP3 Bocillin-FL fluorescence polarization competition binding assay. In short, it runs like this: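 This was a fluorescence polarization competition with fluorescent penicillin Bocillin-FL (0.1 μM final), read at 490/520 nm for 60 min immediately after its addition. The buffer was Hepes pH 8.0 with 300 mM NaCl and 5% glycerol, containing 1.5 μM PBP and test inhibitor up to 1000 μM. Potency is expressed as EC50 for reducing probe binding.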
In general terms: Fluorescence polarisation rises when a labelled molecule tumbles more slowly, as on binding a larger partner.

Sequence of E. coli PBP1b (P02919 whole entry): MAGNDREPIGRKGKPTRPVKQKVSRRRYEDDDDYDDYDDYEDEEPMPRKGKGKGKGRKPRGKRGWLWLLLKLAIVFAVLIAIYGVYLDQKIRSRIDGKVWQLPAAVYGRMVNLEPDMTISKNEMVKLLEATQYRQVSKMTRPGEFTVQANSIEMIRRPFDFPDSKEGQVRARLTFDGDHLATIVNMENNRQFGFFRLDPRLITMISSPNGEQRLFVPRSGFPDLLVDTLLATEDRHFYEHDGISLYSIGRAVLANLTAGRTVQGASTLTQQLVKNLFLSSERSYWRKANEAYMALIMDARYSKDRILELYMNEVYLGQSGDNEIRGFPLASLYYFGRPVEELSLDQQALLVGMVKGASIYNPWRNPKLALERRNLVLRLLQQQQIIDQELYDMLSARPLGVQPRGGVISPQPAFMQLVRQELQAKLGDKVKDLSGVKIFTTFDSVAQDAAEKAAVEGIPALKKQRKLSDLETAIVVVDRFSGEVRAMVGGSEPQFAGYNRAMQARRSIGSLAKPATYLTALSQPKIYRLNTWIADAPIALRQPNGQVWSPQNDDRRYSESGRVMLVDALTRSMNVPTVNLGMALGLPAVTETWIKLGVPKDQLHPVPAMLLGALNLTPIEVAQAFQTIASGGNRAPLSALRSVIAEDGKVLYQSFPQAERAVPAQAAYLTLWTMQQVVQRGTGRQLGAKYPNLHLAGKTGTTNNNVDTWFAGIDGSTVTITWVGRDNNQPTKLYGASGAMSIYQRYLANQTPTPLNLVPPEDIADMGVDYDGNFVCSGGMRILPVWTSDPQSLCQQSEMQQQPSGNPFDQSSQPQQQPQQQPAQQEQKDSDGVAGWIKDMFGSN
Sequence of E. coli PBP3 (P0AD68 whole entry): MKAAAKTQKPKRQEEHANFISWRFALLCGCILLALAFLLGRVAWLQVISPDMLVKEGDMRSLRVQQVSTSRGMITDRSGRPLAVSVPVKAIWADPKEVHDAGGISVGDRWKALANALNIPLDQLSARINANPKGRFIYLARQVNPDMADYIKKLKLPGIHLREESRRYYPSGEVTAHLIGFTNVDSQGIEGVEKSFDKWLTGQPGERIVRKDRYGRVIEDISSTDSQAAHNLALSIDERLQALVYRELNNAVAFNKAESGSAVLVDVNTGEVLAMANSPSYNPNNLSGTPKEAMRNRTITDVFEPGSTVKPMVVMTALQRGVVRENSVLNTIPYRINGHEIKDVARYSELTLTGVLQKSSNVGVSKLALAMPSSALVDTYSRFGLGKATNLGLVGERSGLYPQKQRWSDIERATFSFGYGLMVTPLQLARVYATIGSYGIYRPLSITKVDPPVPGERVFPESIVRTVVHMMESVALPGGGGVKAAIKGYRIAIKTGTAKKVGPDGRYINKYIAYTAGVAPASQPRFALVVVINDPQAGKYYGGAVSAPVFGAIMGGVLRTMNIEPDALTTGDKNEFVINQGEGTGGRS

Consider `CCN1CCN(C(=O)N[C@H](CN)C(=O)N[C@H]2Cc3cccc(C(=O)O)c3OB2O)C(=O)C1=O` [Example 11, (R)-3-((R)-3-amino-2-(4-ethyl-2,3-dioxopiperazine-1-carboxamido)propanamido)-2-hydroxy-3,4-dihydro-2H-benzo[e][1,2]oxaborinine-8-carboxylic acid, trifluoroacetic acid salt], for which the MIC in test [1] and in test [3] was 128 to 256 mg/L throughout. In test [2], this compound showed an EC50 below 10 µM.
With `CCN1CCN(C(=O)N[C@H](CC(=O)O)C(=O)N[C@H]2Cc3cccc(C(=O)O)c3OB2O)C(=O)C1=O` [Example 23, (R)-3-((R)-3-carboxy-2-(4-ethyl-2,3-dioxopiperazine-1-carboxamido)propanamido)-2-hydroxy-3,4-dihydro-2H-benzo[e][1,2]oxaborinine-8-carboxylic acid], the MIC in test [1] and in test [3] was above 512 mg/L each time. Besides, the EC50 is above 500 µM in test [4] and above 100 µM in test [2].
Regarding `CCN1CCN(C(=O)N[C@@H](CC(=O)O)C(=O)N[C@H]2Cc3cccc(C(=O)O)c3OB2O)C(=O)C1=O` [Example 24, (R)-3-((S)-3-carboxy-2-(4-ethyl-2,3-dioxopiperazine-1-carboxamido)propanamido)-2-hydroxy-3,4-dihydro-2H-benzo[e][1,2]oxaborinine-8-carboxylic acid], the MIC in test [1] and in test [3] was above 512 mg/L each time. Also, the results for the EC50 in test [4] and in test [2] were above 500 µM and above 100 µM, respectively.
Take `Nc1nc(C(NC(=O)c2cccc(O)c2O)C(=O)N[C@H]2Cc3cccc(C(=O)O)c3OB2O)cs1` (stereo partly drawn) [Example 25, (3R)-3-(2-(2-aminothiazol-4-yl)-2-(2,3-dihydroxybenzamido)acetamido)-2-hydroxy-3,4-dihydro-2H-benzo[e][1,2]oxaborinine-8-carboxylic acid]: the MIC in test [1] and in test [3] was above 512 mg/L throughout. The EC50 in test [2] was below 10 µM.
As for `CCN1CCN(C(=O)NC(C(=O)N[C@H]2Cc3cccc(C(=O)O)c3OB2O)c2cc(OC)c(O)c(OC)c2)C(=O)C1=O` (stereo partly drawn) [Example 29, (3R)-3-(2-(4-ethyl-2,3-dioxopiperazine-1-carboxamido)-2-(4-hydroxy-3,5-dimethoxyphenyl)acetamido)-2-hydroxy-3,4-dihydro-2H-benzo[e][1,2]oxaborinine-8-carboxylic acid], the MIC in test [1] and in test [3] was 128 to 256 mg/L (≈ 219 to 438 µM) throughout. For the same compound, the EC50 in test [4] (fluorescence polarization competition binding with Bocillin-FL, read-out: E. coli K12 PBP3 Potency) is above 500 µM; in test [2], above 100 µM.
Turning to `CCN1CCN(C(=O)NC(C(=O)N[C@H]2Cc3cccc(C(=O)O)c3OB2O)c2cc(O)c(O)c(O)c2)C(=O)C1=O` (stereo partly drawn) [Example 31, (3R)-3-(2-(4-ethyl-2,3-dioxopiperazine-1-carboxamido)-2-(3,4,5-trihydroxyphenyl)acetamido)-2-hydroxy-3,4-dihydro-2H-benzo[e][1,2]oxaborinine-8-carboxylic acid], the MIC in test [1] and in test [3] was above 512 mg/L each time. Further, the EC50 in test [4] lay in the range of 30 to 500 µM; in test [2], 10 to 100 µM.
With `CCN1CCN(C(=O)NCC(NC(=O)N2CCN(CC)C(=O)C2=O)C(=O)N[C@H]2Cc3cccc(C(=O)O)c3OB2O)C(=O)C1=O` (stereo partly drawn) [Example 33, (3R)-3-(2,3-bis(4-ethyl-2,3-dioxopiperazine-1-carboxamido)propanamido)-2-hydroxy-3,4-dihydro-2H-benzo[e][1,2]oxaborinine-8-carboxylic acid], the MIC in test [1] and in test [3] was above 512 mg/L throughout. Besides, the EC50 is above 500 µM in test [4] and below 10 µM in test [2].
As for `CCN1CCN(C(=O)NC(CNC(=O)c2ccc(O)c(O)c2)C(=O)N[C@H]2Cc3cccc(C(=O)O)c3OB2O)C(=O)C1=O` (stereo partly drawn) [Example 35, (3R)-3-(3-(3,4-dihydroxybenzamido)-2-(4-ethyl-2,3-dioxopiperazine-1-carboxamido)propanamido)-2-hydroxy-3,4-dihydro-2H-benzo[e][1,2]oxaborinine-8-carboxylic acid], the MIC in test [1] and in test [3] was above 512 mg/L throughout. The EC50 in test [4] is above 500 µM; in test [2] it was below 10 µM.
As to `CCN1CCN(C(=O)NC(CNC(=O)c2cccc(O)c2O)C(=O)N[C@H]2Cc3cccc(C(=O)O)c3OB2O)C(=O)C1=O` (stereo partly drawn) [Example 36, (3R)-3-(3-(2,3-dihydroxybenzamido)-2-(4-ethyl-2,3-dioxopiperazine-1-carboxamido)propanamido)-2-hydroxy-3,4-dihydro-2H-benzo[e][1,2]oxaborinine-8-carboxylic acid], the MIC in test [1] and in test [3] was above 512 mg/L each time. Moreover, the EC50 in test [4] is above 500 µM; in test [2] it was below 10 µM.
`CCN1CCN(C(=O)NC(C(=O)N[C@H]2Cc3cccc(C(=O)O)c3OB2O)c2ccc(O)nc2)C(=O)C1=O` (stereo partly drawn) [Example 41, (3R)-3-(2-(4-ethyl-2,3-dioxopiperazine-1-carboxamido)-2-(6-hydroxypyridin-3-yl)acetamido)-2-hydroxy-3,4-dihydro-2H-benzo[e][1,2]oxaborinine-8-carboxylic acid]: the MIC in test [1] and in test [3] was 32 to 64 mg/L (≈ 60.9 to 122 µM) throughout. Further, the EC50 in test [4] is 30 to 500 µM; in test [2] it was below 10 µM.

The values above are taken from patent US12173018B2, “Penicillin-binding protein inhibitors” (priority 2018, dated 2024).
